Measurements from article PMC1930153, “Engineering the Melanocortin-4 Receptor to Control Constitutive and Ligand-Mediated Gs Signaling In Vivo” (PLoS ONE, 2007).

Key:
Type in all cases: cell-based
wild-type MC4R [1] = molecular target: T1, wild-type MC4R (Homo sapiens, UniProt P32245); test: cAMP assay, wild-type MC4R in transiently transfected HEK293 cells
T1 construct: prolactin signal peptide (N); expressed in transfected cells; host or cells: HEK293
Experimental: (§1) HEK293 cells were maintained in Dulbecco's modified Eagle's medium supplemented with 10% fetal bovine serum containing L-glutamine. […] For the internalization assays, stable cell lines expressing wild-type or RASSL-MC4R were generated by G418-mediated selection (10 µg/ml) of clones expressing the neomycin-resistance gene cotransfected with MC4R. Stable cell lines were maintained by selection with 5 µg/ml G418.
(§2) cAMP production was measured with an ultra sensitive enzymatic cAMP assay (CatchPoint, Molecular Devices, Sunnyvale, CA). Transiently transfected cells were plated at 1×10^5/well into 96-well plates coated with poly-D-lysine (Sigma). Forty-eight h after transfection, cells were rinsed in Krebs-Ringer bicarbonate buffer containing glucose (Sigma) and incubated in pre-stimulation buffer containing 0.75 mM 3-isobutyl-1-methylxanthine in the same buffer for 10 min at room temperature. […] The cells were lysed, and cAMP accumulation was measured according to the CatchPoint protocol. cAMP generated under the different experimental conditions was interpolated from a cAMP standard curve for each experiment. Four replicates were used for each condition, and all experiments were repeated at least three times. Emax and EC50 values were calculated with SoftMax Pro. cAMP measurements were performed on transiently transfected cells.

MC4R N97D = molecular target: T2, MC4R N97D (Homo sapiens, UniProt P32245, N97D); test: cAMP assay, N97D MC4R mutant in HEK293 cells
T2 construct: prolactin signal peptide (N); green fluorescent protein (N); expressed in transfected cells; host or cells: HEK293
Experimental: (§3) HEK293 cells were maintained in Dulbecco's modified Eagle's medium supplemented with 10% fetal bovine serum containing L-glutamine. Wild-type and mutant MC4R were transfected into HEK 293 cells with Lipofectamine (Invitrogen). For the internalization assays, stable cell lines expressing wild-type or RASSL-MC4R were generated by G418-mediated selection (10 µg/ml) of clones expressing the neomycin-resistance gene cotransfected with MC4R. Stable cell lines were maintained by selection with 5 µg/ml G418.
as §2, with “Four replicates were used for each condition, and all experiments were repeated at least three times.” left out

MC4R G98R = molecular target: T3, MC4R G98R (Homo sapiens, UniProt P32245, G98R); test: cAMP assay, G98R MC4R mutant in HEK293 cells
T3 construct: prolactin signal peptide (N); green fluorescent protein (N); expressed in transfected cells; host or cells: HEK293
Experimental: as §3
as §2, with “Four replicates were used for each condition, and all experiments were repeated at least three times.” left out

MC4R E100A = molecular target: T4, MC4R E100A (Homo sapiens, UniProt P32245, E100A); test: cAMP assay, E100A MC4R mutant in HEK293 cells
T4 construct: prolactin signal peptide (N); green fluorescent protein (N); expressed in transfected cells; host or cells: HEK293
Experimental: as §3
as §2, with “Four replicates were used for each condition, and all experiments were repeated at least three times.” left out

MC4R I102S = molecular target: T5, MC4R I102S (Homo sapiens, UniProt P32245, I102S); test: cAMP assay, I102S MC4R mutant in HEK293 cells
T5 construct: prolactin signal peptide (N); green fluorescent protein (N); expressed in transfected cells; host or cells: HEK293
Experimental: as §3
as §2, with “Four replicates were used for each condition, and all experiments were repeated at least three times.” left out

L106P-MC4R (Rm1) = molecular target: T6, L106P-MC4R (Rm1) (Homo sapiens, UniProt P32245, L106P); test: cAMP assay, L106P MC4R (Rm1) in HEK293 cells
T6 construct: prolactin signal peptide (N); green fluorescent protein (N); expressed in transfected cells; host or cells: HEK293
Experimental: as §1, §2

D122A-MC4R (Rm2) = molecular target: T7, D122A-MC4R (Rm2) (Homo sapiens, UniProt P32245, D122A); test: cAMP assay, D122A MC4R (Rm2) in HEK293 cells
T7 construct: prolactin signal peptide (N); green fluorescent protein (N); expressed in transfected cells; host or cells: HEK293
Experimental: as §1, §2

MC4R D126A = molecular target: T8, MC4R D126A (Homo sapiens, UniProt P32245, D126A); test: cAMP assay, D126A MC4R mutant in HEK293 cells
T8 construct: prolactin signal peptide (N); green fluorescent protein (N); expressed in transfected cells; host or cells: HEK293
Experimental: as §3
as §2, with “Four replicates were used for each condition, and all experiments were repeated at least three times.” left out

MC4R S127L = molecular target: T9, MC4R S127L (Homo sapiens, UniProt P32245, S127L); test: cAMP assay, S127L MC4R mutant in HEK293 cells
T9 construct: prolactin signal peptide (N); green fluorescent protein (N); expressed in transfected cells; host or cells: HEK293
Experimental: as §3
as §2, with “Four replicates were used for each condition, and all experiments were repeated at least three times.” left out

wild-type MC4R [2] = molecular target: T1, wild-type MC4R; test: Receptor internalization (cell-surface FLAG ELISA), HEK293 cells stably expressing wild-type MC4R; conditions: WT MC4R, 2-h exposure
Experimental: as §3
(§4) Cell-surface expression of receptors was measured with an enzyme-linked immunosorbent assay (ELISA) that detects the extracellular FLAG tag. Transiently transfected cells were plated at 1×10^5/well into 96-well plates coated with poly-D-lysine (Sigma). […] Forty-eight h after transfection, cells were fixed in 4% paraformaldehyde (Sigma) for 10 min at 4°C. After two washes in phosphate-buffered saline, the cells were incubated in 1 µg/ml M1 anti-FLAG antibody (Sigma) for 2 h at room temperature, washed twice in phosphate-buffered saline, and incubated for 1 h at room temperature with horseradish peroxidase–conjugated goat-anti-mouse (1∶1000, BioRad, Chicago, IL). […] After 15–60 min, the optical density was read at 405 nm in a spectrophotometer. […]

Rm1 (L106P) = molecular target: T10, Rm1 (L106P) (Homo sapiens, UniProt P32245, L106P); test: Receptor internalization (cell-surface FLAG ELISA), HEK293 cells stably expressing Rm1
T10 construct: prolactin signal peptide (N); green fluorescent protein (N); expressed in transfected cells; host or cells: HEK293
Experimental: as §3, §4

Rm2 (D122A) = molecular target: T11, Rm2 (D122A) (Homo sapiens, UniProt P32245, D122A); test: Receptor internalization (cell-surface FLAG ELISA), HEK293 cells stably expressing Rm2
T11 construct: prolactin signal peptide (N); green fluorescent protein (N); expressed in transfected cells; host or cells: HEK293
Experimental: as §3, §4

wild-type MC4R [3] = molecular target: T1, wild-type MC4R; test: Cell-surface expression ELISA, transiently transfected HEK293 cells, wild-type MC4R; conditions: WT MC4R, transient transfection; α-MSH 1 µM
Experimental: as §3, §4

Q: For `O=C(N[C@H](Cc1ccc(Cl)cc1)C(=O)N1CCC(Cn2cncn2)(C2CCCCC2)CC1)[C@H]1Cc2ccccc2CN1` (relative stereo) [THIQ], which “Emax (% of WT)” value (wild-type MC4R [1]; cAMP, 2 h stimulation) is on record?
A: 100 % of WT

Q: What about the “Emax (% of WT)” value (MC4R N97D) of the same molecule?
A: 43.1±3.1 % of WT

Q: And the “Emax (% of WT)” value (MC4R G98R)?
A: 2.6±0.6 % of WT

Q: What about the “Emax (% of WT)” value (MC4R E100A) of the same molecule?
A: 44.54±4.9 % of WT

Q: And the “Emax (% of WT)” value (MC4R I102S)?
A: 49.2±2.2 % of WT

Q: What about the “Emax (% of WT)” value (L106P-MC4R (Rm1); cAMP, L106P (Rm1)) of the same molecule?
A: 73.4±14.8 % of WT

Q: And the “Emax (% of WT)” value (D122A-MC4R (Rm2); cAMP, D122A (Rm2))?
A: 90.3±6.2 % of WT

Q: And the “Emax (% of WT)” value (MC4R D126A)?
A: 50.7±3.6 % of WT

Q: What about the “Emax (% of WT)” value (MC4R S127L) of the same molecule?
A: 21.7±3.5 % of WT

Q: And the “Internalization in words (time course)” value (wild-type MC4R [2]; 1 µM ligand)?
A: did not result in internalization

Q: And the “Receptor sequestration in words” value (wild-type MC4R [2]; increasing concentrations)?
A: did not cause sequestration

Q: And the “Internalization in words (time course)” value (Rm1 (L106P); Rm1, 1 µM ligand, 2-h exposure)?
A: did not internalize

Q: What about the “Receptor sequestration/internalization in words” value (Rm1 (L106P); Rm1, 2-h exposure, increasing concentrations) of the same molecule?
A: did not cause sequestration

Q: And the “Decrease in cell-surface expression” value (Rm2 (D122A); Rm2, 1 µM ligand)?
A: about 20%

Q: What about the “Receptor sequestration/internalization in words” value (Rm2 (D122A); Rm2, 2-h exposure, increasing concentrations) of the same molecule?
A: did not cause sequestration

Q: Which results are given for `CSCC[C@H](NC(=O)[C@H](CCCNC(=N)N)NC(=O)[C@H](Cc1ccc(O)cc1)NC(=O)[C@@H]1CCCN1C(=O)CNC(=O)[C@H](CCC(=O)O)NC(=O)[C@H](CC(=O)O)NC(=O)[C@H](CCCCN)NC(=O)[C@H](CCCCN)NC(=O)[C@H](CCC(=O)O)NC(=O)[C@H](C)N)C(=O)N[C@@H](CCC(=O)O)C(=O)N[C@@H](Cc1c[nH]cn1)C(=O)N[C@@H](Cc1ccccc1)C(=O)N[C@@H](CCCNC(=N)N)C(=O)N[C@@H](Cc1c[nH]c2ccccc12)C(=O)NCC(=O)N[C@@H](CO)C(=O)N1CCC[C@H]1C(=O)N1CCC[C@H]1C(=O)N[C@@H](CCCCN)C(=O)N[C@@H](CC(=O)O)C(=O)O` [β-MSH]?
A: Activation (cAMP release) in words (wild-type MC4R [1]; WT MC4R, increasing concentrations): full activation; Activation (cAMP release) in words (L106P-MC4R (Rm1); Rm1, increasing concentrations): no activation; Activation (cAMP release) in words (D122A-MC4R (Rm2); Rm2, increasing concentrations): no activation

Q: With “agouti-related peptide (SSRRCVRLHESCLGQQVPCCDPCATCYCRFFNAFCYCRKLGTAMNPCSRT; UniProt O00253 83-132, looked up) [AGRP]” as the molecule, how does the “Antagonism when co-administered with THIQ” value (L106P-MC4R (Rm1); Rm1, cAMP) read?
A: full antagonist

Q: And the “Effect on cell-surface expression in words” value (wild-type MC4R [3])?
A: stabilized receptor expression on the cell surface
